Source: ChEMBL document CHEMBL5653615 (J Biol Chem, 2013)

Columns and labels:
[1] = target: T1, Myotonin-protein kinase (Homo sapiens) (UniProt Q09013); experiment: Inhibition of human DMPK at 500 nM by HotSpot assay relative to control
T1 sequence (whole entry): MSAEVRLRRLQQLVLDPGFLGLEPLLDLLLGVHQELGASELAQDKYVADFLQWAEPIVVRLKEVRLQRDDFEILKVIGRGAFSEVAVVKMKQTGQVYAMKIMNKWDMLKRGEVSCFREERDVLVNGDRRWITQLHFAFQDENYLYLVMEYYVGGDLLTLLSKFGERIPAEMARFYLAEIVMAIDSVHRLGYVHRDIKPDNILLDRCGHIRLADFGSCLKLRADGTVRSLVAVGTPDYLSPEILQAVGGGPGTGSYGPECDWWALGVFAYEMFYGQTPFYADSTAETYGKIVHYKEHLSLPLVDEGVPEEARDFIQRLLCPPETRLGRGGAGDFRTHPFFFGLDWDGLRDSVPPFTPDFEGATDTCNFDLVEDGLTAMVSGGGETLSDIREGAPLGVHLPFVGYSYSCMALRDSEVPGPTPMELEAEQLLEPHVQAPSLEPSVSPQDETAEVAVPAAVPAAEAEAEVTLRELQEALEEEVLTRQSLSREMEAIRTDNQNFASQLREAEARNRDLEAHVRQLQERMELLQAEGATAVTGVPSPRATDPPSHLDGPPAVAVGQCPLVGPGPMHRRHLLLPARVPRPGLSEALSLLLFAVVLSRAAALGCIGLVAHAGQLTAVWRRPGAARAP

[2] = target: CDK4/Cyclin D3 (Homo sapiens) (UniProt P11802+P30281); experiment: Inhibition of human CDK4/cyclin D3 at 500 nM by HotSpot assay relative to control; type: protein-complex assay
[3] = target: MAP kinase-activated protein kinase 3 (Homo sapiens) (UniProt Q16644); experiment: Inhibition of human MAPKAPK3 at 500 nM by HotSpot assay relative to control
MAP kinase-activated protein kinase 3 (Homo sapiens), sequence (Q16644 whole entry, looked up): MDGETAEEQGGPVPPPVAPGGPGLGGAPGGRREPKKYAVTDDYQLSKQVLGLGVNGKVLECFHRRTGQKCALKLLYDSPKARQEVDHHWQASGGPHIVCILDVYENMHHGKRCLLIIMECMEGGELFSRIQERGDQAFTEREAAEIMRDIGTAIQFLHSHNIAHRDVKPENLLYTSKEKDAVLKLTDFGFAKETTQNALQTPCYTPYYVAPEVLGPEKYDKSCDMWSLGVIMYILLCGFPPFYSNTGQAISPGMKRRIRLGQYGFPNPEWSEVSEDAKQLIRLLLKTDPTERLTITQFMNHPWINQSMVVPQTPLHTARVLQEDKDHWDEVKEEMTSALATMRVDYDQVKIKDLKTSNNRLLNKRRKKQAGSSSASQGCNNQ

[4] = target: Dual specificity protein kinase CLK3 (Homo sapiens) (UniProt P49761); experiment: Inhibition of human CLK3 at 500 nM by HotSpot assay relative to control
Dual specificity protein kinase CLK3 (Homo sapiens), sequence (P49761 whole entry, looked up): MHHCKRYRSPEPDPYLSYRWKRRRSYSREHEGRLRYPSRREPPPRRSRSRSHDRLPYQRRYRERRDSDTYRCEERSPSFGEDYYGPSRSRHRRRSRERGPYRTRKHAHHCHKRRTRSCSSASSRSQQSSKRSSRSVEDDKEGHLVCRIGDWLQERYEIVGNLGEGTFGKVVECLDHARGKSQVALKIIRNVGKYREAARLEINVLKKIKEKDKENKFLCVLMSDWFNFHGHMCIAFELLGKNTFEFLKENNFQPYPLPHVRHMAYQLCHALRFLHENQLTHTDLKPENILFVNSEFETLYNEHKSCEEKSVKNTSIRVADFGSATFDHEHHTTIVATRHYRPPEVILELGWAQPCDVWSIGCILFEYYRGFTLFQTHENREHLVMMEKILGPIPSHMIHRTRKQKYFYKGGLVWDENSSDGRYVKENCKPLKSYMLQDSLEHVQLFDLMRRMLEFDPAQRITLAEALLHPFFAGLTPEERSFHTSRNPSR

[5] = target: Mitogen-activated protein kinase kinase kinase 10 (Homo sapiens) (UniProt Q02779); experiment: Inhibition of human MAP3K10 at 500 nM by HotSpot assay relative to control
Mitogen-activated protein kinase kinase kinase 10 (Homo sapiens), sequence (Q02779 whole entry, looked up): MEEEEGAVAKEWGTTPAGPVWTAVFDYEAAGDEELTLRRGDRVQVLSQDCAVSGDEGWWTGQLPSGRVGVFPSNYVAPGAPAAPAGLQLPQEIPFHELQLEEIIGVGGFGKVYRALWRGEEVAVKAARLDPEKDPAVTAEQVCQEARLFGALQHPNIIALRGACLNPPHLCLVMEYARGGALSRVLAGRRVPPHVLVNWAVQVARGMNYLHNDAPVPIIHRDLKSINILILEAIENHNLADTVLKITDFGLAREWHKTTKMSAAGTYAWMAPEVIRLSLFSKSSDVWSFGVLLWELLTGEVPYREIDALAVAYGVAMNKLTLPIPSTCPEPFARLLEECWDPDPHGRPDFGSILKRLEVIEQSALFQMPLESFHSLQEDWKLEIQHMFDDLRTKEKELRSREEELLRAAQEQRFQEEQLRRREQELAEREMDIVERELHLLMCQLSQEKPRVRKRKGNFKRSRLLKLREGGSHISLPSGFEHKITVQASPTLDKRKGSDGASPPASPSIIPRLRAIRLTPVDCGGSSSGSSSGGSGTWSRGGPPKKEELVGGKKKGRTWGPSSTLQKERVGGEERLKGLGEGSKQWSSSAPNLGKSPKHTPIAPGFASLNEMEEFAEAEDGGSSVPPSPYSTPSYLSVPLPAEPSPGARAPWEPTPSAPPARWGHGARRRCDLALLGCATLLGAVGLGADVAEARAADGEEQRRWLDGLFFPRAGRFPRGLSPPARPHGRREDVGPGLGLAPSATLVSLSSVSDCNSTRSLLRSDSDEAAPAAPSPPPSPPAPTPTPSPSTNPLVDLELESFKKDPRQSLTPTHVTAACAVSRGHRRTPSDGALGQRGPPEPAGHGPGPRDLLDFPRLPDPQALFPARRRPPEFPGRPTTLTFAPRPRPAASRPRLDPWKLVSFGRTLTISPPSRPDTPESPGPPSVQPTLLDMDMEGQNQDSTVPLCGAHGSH

[6] = target: STE20/SPS1-related proline-alanine-rich protein kinase (Homo sapiens) (UniProt Q9UEW8); experiment: Inhibition of human STLK3 at 500 nM by HotSpot assay relative to control
[7] = target: Dual specificity protein kinase CLK4 (Homo sapiens) (UniProt Q9HAZ1); experiment: Inhibition of human CLK4 at 500 nM by HotSpot assay relative to control
Dual specificity protein kinase CLK4 (Homo sapiens), sequence (Q9HAZ1 whole entry, looked up): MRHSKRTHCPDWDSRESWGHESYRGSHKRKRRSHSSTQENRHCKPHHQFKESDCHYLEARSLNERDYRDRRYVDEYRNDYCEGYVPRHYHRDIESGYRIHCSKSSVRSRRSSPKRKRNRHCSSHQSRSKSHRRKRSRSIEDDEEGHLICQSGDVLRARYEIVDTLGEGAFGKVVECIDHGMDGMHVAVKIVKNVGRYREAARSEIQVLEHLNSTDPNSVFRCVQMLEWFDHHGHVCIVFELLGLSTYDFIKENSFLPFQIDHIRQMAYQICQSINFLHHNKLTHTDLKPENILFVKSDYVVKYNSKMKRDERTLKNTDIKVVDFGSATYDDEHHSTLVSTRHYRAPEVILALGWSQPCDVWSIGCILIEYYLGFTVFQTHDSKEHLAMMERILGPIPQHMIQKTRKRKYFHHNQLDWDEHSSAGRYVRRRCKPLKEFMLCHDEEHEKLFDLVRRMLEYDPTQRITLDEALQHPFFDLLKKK

[8] = target: MAP kinase-interacting serine/threonine-protein kinase 1 (Homo sapiens) (UniProt Q9BUB5); experiment: Inhibition of human MNK1 at 500 nM by HotSpot assay relative to control
MAP kinase-interacting serine/threonine-protein kinase 1 (Homo sapiens), sequence (Q9BUB5 whole entry, looked up): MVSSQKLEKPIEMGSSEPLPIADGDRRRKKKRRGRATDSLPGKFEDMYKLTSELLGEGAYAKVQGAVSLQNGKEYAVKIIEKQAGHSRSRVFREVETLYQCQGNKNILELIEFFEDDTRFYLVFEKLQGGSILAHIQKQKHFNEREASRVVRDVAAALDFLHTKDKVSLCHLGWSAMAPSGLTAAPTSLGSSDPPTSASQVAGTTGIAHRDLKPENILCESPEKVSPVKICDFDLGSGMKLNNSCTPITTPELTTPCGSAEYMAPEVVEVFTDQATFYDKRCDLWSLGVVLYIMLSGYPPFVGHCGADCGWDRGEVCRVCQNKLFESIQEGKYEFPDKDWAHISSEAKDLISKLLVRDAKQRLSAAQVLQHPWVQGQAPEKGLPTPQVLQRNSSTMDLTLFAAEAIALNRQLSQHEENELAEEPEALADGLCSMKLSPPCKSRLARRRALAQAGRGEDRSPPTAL

[9] = target: T2, Dual specificity tyrosine-phosphorylation-regulated kinase 4 (Homo sapiens) (UniProt Q9NR20); experiment: Inhibition of human DYRK4 at 500 nM by HotSpot assay relative to control
T2 sequence (whole entry): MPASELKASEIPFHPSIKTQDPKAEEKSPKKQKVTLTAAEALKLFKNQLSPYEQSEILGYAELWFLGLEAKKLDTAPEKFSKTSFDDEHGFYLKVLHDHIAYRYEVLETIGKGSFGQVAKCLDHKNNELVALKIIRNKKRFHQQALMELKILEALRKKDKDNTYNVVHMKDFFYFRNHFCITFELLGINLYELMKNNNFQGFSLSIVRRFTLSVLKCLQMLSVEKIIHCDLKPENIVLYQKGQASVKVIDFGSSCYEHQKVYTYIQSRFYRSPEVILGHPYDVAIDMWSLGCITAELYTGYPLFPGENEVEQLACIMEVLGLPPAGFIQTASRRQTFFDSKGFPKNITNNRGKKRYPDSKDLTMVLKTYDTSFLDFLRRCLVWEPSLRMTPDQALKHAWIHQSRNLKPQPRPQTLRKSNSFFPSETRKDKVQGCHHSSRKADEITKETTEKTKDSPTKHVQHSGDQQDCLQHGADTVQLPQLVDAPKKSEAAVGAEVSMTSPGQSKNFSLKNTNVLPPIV

[10] = target: T3, Dual specificity tyrosine-phosphorylation-regulated kinase 3 (Homo sapiens) (UniProt O43781); experiment: Inhibition of human DYRK3 at 500 nM by HotSpot assay relative to control
T3 sequence (whole entry): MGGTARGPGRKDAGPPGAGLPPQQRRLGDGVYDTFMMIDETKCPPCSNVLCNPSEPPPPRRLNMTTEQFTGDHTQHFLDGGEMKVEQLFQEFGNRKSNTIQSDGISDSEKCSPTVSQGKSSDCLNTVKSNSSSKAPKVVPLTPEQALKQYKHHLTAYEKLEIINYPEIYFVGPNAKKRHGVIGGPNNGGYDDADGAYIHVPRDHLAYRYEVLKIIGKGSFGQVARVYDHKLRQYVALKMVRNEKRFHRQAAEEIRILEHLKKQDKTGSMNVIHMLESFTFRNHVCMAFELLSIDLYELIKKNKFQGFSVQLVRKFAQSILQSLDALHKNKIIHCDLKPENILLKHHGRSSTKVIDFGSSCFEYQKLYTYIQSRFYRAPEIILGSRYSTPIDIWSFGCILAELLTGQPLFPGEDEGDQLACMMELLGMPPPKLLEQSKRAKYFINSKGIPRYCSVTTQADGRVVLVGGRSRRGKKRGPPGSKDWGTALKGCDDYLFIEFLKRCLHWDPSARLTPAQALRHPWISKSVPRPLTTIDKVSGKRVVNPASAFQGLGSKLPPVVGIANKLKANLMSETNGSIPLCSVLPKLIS

[11] = target: Mitogen-activated protein kinase kinase kinase 9 (Homo sapiens) (UniProt P80192); experiment: Inhibition of human MAP3K9 at 500 nM by HotSpot assay relative to control
Mitogen-activated protein kinase kinase kinase 9 (Homo sapiens), sequence (P80192 whole entry, looked up): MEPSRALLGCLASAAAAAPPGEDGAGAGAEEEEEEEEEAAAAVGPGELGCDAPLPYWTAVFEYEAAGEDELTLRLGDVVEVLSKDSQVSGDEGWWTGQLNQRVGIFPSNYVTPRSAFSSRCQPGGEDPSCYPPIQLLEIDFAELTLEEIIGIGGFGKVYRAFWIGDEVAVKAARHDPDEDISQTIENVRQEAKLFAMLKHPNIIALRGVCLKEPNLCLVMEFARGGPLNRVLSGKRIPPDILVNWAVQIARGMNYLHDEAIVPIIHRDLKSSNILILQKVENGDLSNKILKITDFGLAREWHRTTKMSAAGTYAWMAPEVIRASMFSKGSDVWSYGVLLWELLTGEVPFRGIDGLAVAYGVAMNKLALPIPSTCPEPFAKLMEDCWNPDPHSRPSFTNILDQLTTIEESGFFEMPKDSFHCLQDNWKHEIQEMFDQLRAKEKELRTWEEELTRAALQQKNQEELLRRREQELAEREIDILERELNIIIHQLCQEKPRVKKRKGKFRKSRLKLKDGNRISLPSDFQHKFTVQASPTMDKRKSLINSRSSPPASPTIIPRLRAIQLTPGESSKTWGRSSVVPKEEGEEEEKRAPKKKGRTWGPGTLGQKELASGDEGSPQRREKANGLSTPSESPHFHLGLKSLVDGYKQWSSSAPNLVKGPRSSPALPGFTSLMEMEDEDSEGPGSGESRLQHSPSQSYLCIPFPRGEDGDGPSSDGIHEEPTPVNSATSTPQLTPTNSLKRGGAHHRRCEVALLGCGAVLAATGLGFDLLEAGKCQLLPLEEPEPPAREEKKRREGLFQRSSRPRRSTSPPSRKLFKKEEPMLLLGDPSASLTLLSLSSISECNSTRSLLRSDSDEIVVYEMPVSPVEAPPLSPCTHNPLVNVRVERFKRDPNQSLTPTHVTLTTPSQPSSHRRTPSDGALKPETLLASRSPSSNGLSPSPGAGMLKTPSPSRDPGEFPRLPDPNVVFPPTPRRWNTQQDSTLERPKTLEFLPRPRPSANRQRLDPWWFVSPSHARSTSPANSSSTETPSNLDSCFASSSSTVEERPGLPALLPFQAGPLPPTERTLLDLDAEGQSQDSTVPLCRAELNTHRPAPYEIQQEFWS

| Compound | inhibition [1] | inhibition [2] | inhibition [3] | inhibition [4] | inhibition [5] | inhibition [6] | inhibition [7] | inhibition [8] | inhibition [9] | inhibition [10] | inhibition [11] |
| --- | --- | --- | --- | --- | --- | --- | --- | --- | --- | --- | --- |
| Oc1n[nH]c2nnc(-c3c(-c4ccccc4)nn4ccccc34)cc12 | -3.39% | -0.94% | -0.14% | 1.04% | 5.25% | 7.91% | -0.68% | 0.89% | 4.52% | 1.62% | -2.83% |
| Nc1n[nH]c2nnc(-c3c(-c4ccccc4)nn4ccccc34)cc12 | -2.61% | -0.36% | -2.71% | 5.1% | 9.29% | 10.9% | 5.12% | 1.48% | 4.67% | 0.17% | 0.07% |
